Test results taken from patent US8952157B2, “Apoptosis-inducing agents for the treatment of cancer and immune and autoimmune diseases” (AbbVie Inc., priority 2008, dated 2015).
Where two headings read alike, the source gives them in different places.

Molecular target: GST-Bcl-2 (Homo sapiens (Human), UniProt P10415)
Assay: Time Resolved-Fluorescence Resonance Energy Transfer (TR-FRET) Bcl-2 binding assay
How it was run: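 Ki values derived from TR-FRET displacement of F-Bak peptide from GST-Bcl-2, detected with Tb-labelled anti-GST antibody (ex 340, em 520/495 nm). Compound dilution series started at 50 μM (2× starting concentration); room-temperature incubation 3 hours.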

[1] = GST-Bcl-2 1 nM, F-Bak peptide probe 100 nM, Tb-anti-GST antibody 1 nM, Ki by Wang's equation

Chain of GST-Bcl-2 (P10415 whole entry): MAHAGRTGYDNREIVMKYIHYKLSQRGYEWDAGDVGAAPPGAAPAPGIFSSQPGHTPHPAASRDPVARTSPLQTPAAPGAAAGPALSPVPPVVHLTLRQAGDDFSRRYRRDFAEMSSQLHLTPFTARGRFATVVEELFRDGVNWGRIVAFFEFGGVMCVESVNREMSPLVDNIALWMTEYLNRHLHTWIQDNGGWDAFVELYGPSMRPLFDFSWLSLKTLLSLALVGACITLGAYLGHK

Question: For `CC1(C)CCC(CN2CCN(c3ccc(C(=O)NS(=O)(=O)c4ccc(NC5CCN(C6CCOCC6)CC5)c([N+](=O)[O-])c4)c(Oc4ccnc(NC(=O)OC(C)(C)C)c4)c3)CC2)=C(c2ccc(Cl)cc2)C1` [Example 271, tert-butyl 4-(5-(4-{[2-(4-chlorophenyl)-4,4-dimethylcyclohex-1-en-1-yl]methyl}piperazin-1-yl)-2-{[({3-nitro-4-[(1-tetrahydro-2H-pyran-4-ylpiperidin-4-yl)amino]phenyl}sulfonyl)amino]carbonyl}phenoxy)pyridin-2-ylcarbamate], which Ki [1] is on record?
Answer: Its Ki is 1.91 nM.

Question: Which Ki [1] does the source give for `CN(C)CCCNc1ccc(S(=O)(=O)NC(=O)c2ccc(N3CCN(CC4=C(c5ccc(Cl)cc5)CC(C)(C)CC4)CC3)cc2Oc2ccc3c(ccn3C(=O)OC(C)(C)C)c2)cc1[N+](=O)[O-]` [Example 231, tert-butyl 5-[5-(4-{[2-(4-chlorophenyl)-4,4-dimethylcyclohex-1-en-1-yl]methyl}piperazin-1-yl)-2-({[(4-{[3-(dimethylamino)propyl]amino}-3-nitrophenyl)sulfonyl]amino}carbonyl)phenoxy]-1H-indole-1-carboxylate] here?
Answer: The Ki was 36.9 nM.

Question: With `CC1(C)CCC(CN2CCN(c3ccc(C(=O)NS(=O)(=O)c4ccc(N[C@@H]5CCN(C(CF)CF)C5)c([N+](=O)[O-])c4)c(Oc4cc5cc[nH]c5cc4F)c3)CC2)=C(c2ccc(Cl)cc2)C1` [Example 357, 4-(4-{[2-(4-chlorophenyl)-4,4-dimethylcyclohex-1-en-1-yl]methyl}piperazin-1-yl)-N-{[4-({(3R)-1-[2-fluoro-1-(fluoromethyl)ethyl]pyrrolidin-3-yl}amino)-3-nitrophenyl]sulfonyl}-2-[(6-fluoro-1H-indol-5-yl)oxy]benzamide] as the compound, how does the Ki [1] read?
Answer: The Ki was 0.177 nM.

Question: For `Cc1c(O)cccc1Oc1cc(N2CCN(CC3=C(c4ccc(Cl)cc4)CC(C)(C)CC3)CC2)ccc1C(=O)NS(=O)(=O)c1ccc(NC2CCN(C)CC2)c([N+](=O)[O-])c1` [Example 159], which Ki [1] is on record?
Answer: The Ki was 0.526 nM.

Question: With `CN1CCC(CNc2ccc(S(=O)(=O)NC(=O)c3ccc(N4CCN(CC5=C(c6ccc(Cl)cc6)CC(C)(C)CC5)CC4)cc3Oc3cccc(Cl)c3)cc2[N+](=O)[O-])CC1` [Example 155, 2-(3-chlorophenoxy)-4-(4-{[2-(4-chlorophenyl)-4,4-dimethylcyclohex-1-en-1-yl]methyl}piperazin-1-yl)-N-[(4-{[(1-methylpiperidin-4-yl)methyl]amino}-3-nitrophenyl)sulfonyl]benzamide] as the compound, how does the Ki [1] read?
Answer: Its Ki is 0.062 nM.

Question: With `O=C(NS(=O)(=O)c1ccc(NCC2CCOCC2)c([N+](=O)[O-])c1)c1ccc(N2CCN(Cc3ccccc3-c3ccc(Cl)cc3)CC2)cc1Oc1ccc(Cl)cc1` [Example 7, 4-(4-((4′-chloro-1,1′-biphenyl-2-yl)methyl)piperazin-1-yl)-2-(4-chlorophenoxy)-N-((3-nitro-4-((tetrahydro-2H-pyran-4-ylmethyl)amino)phenyl)sulfonyl)benzamide] as the compound, how does the Ki [1] read?
Answer: Its Ki is 2.59 nM.

Question: How did the Ki [1] turn out when `CN1CCC(Nc2ccc(S(=O)(=O)NC(=O)c3ccc(N4CCN(CC5=C(c6ccc(Cl)cc6)CC(C)(C)CC5)CC4)cc3Oc3cc(F)cc(F)c3Cl)cc2[N+](=O)[O-])CC1` [Example 165, 2-(2-chloro-3,5-difluorophenoxy)-4-(4-{[2-(4-chlorophenyl)-4,4-dimethylcyclohex-1-en-1-yl]methyl}piperazin-1-yl)-N-({4-[(1-methylpiperidin-4-yl)amino]-3-nitrophenyl}sulfonyl)benzamide] was run?
Answer: The Ki was 0.12 nM.

Question: For `CN1CCC(Nc2ccc(S(=O)(=O)NC(=O)c3ccc(N4CCN(CC5=C(c6ccc(Cl)cc6)CC(C)(C)OC5)CC4)cc3Oc3cccc(I)c3)cc2[N+](=O)[O-])CC1` [Example 161, 4-(4-{[4-(4-chlorophenyl)-6,6-dimethyl-5,6-dihydro-2H-pyran-3-yl]methyl}piperazin-1-yl)-2-(3-iodophenoxy)-N-({4-[(1-methylpiperidin-4-yl)amino]-3-nitrophenyl}sulfonyl)benzamide], which Ki [1] is on record?
Answer: The Ki was 0.031 nM.

Question: For `CN(C)C1CCC(Nc2ccc(S(=O)(=O)NC(=O)c3ccc(N4CCN(CC5=C(c6ccc(Cl)cc6)CC(C)(C)CC5)CC4)cc3Oc3cccc(Cl)c3)cc2[N+](=O)[O-])CC1` (centres unmarked) [Example 203, 2-(3-chlorophenoxy)-4-(4-{[2-(4-chlorophenyl)-4,4-dimethylcyclohex-1-en-1-yl]methyl}piperazin-1-yl)-N-[(4-{[4-(dimethylamino)cyclohexyl]amino}-3-nitrophenyl)sulfonyl]benzamide], which Ki [1] is on record?
Answer: Its Ki is 0.084 nM.

Question: Which Ki [1] does the source give for `CC1(C)CCC(CN2CCN(c3ccc(C(=O)NS(=O)(=O)c4ccc(NC5CCN(C6CCOCC6)CC5)c([N+](=O)[O-])c4)c(Oc4ccccc4F)c3)CC2)=C(c2ccc(Cl)cc2)C1` [Example 124, 4-(4-{[2-(4-chlorophenyl)-4,4-dimethylcyclohex-1-en-1-yl]methyl}piperazin-1-yl)-2-(2-fluorophenoxy)-N-({3-nitro-4-[(1-tetrahydro-2H-pyran-4-ylpiperidin-4-yl)amino]phenyl}sulfonyl)benzamide] here?
Answer: Its Ki is 0.033 nM.

Question: For `CC1(C)CCC(CN2CCN(c3ccc(C(=O)NS(=O)(=O)c4ccc(NCC5CCC(F)(F)CC5)c([N+](=O)[O-])c4)c(Oc4cnc(N)c(Cl)c4)c3)CC2)=C(c2ccc(Cl)cc2)C1` [Example 396, 2-[(6-amino-5-chloropyridin-3-yl)oxy]-4-(4-{[2-(4-chlorophenyl)-4,4-dimethylcyclohex-1-en-1-yl]methyl}piperazin-1-yl)-N-[(4-{[(4,4-difluorocyclohexyl)methyl]amino}-3-nitrophenyl)sulfonyl]benzamide], which Ki [1] is on record?
Answer: Its Ki is < 0.01 nM.

Question: `O=C(NS(=O)(=O)c1ccc(N[C@H]2CC[C@H](N3CCOCC3)CC2)c(S(=O)(=O)C(F)(F)F)c1)c1ccc(N2CCN(CC3=C(c4ccc(Cl)cc4)CCOCC3)CC2)cc1Oc1cc2cc[nH]c2cc1Cl` [Example 314, Trans-2-[(6-chloro-1H-indol-5-yl)oxy]-4-(4-{[5-(4-chlorophenyl)-2,3,6,7-tetrahydrooxepin-4-yl]methyl}piperazin-1-yl)-N-({4-[(4-morpholin-4-ylcyclohexyl)amino]-3-[(trifluoromethyl)sulfonyl]phenyl}sulfonyl)benzamide] was tested. Which Ki did it give?
Answer: The Ki was 3.09 nM.

Question: Which Ki [1] does the source give for `CC1(C)CCC(CN2CCN(c3ccc(C(=O)NS(=O)(=O)c4ccc(NC5CCN(CCc6ccccc6)CC5)c([N+](=O)[O-])c4)c(Oc4cccc(Cl)c4)c3)CC2)=C(c2ccc(Cl)cc2)C1` [Example 163, 2-(3-chlorophenoxy)-4-(4-{[2-(4-chlorophenyl)-4,4-dimethylcyclohex-1-en-1-yl]methyl}piperazin-1-yl)-N-[(3-nitro-4-{[1-(2-phenylethyl)piperidin-4-yl]amino}phenyl)sulfonyl]benzamide] here?
Answer: The Ki was 0.686 nM.

Question: `CN1CCC(Nc2ccc(S(=O)(=O)NC(=O)c3ccc(N4CCN(CC5=C(c6ccc(Cl)cc6)CC(C)(C)CC5)CC4)cc3OCc3csc(NC(=O)OC(C)(C)C)n3)cc2[N+](=O)[O-])CC1` [Example 222, tert-butyl 4-[(5-(4-{[2-(4-chlorophenyl)-4,4-dimethylcyclohex-1-en-1-yl]methyl}piperazin-1-yl)-2-{[({4-[(1-methylpiperidin-4-yl)amino]-3-nitrophenyl}sulfonyl)amino]carbonyl}phenoxy)methyl]-1,3-thiazol-2-ylcarbamate] was tested. Which Ki [1] did it give?
Answer: Its Ki is > 1200 nM.

Question: How did the Ki [1] turn out when `COc1ccccc1Oc1cc(N2CCN(CC3=C(c4ccc(Cl)cc4)CC(C)(C)CC3)CC2)ccc1C(=O)NS(=O)(=O)c1ccc(NC2CCN(C)CC2)c([N+](=O)[O-])c1` [Example 180, 4-(4-{[2-(4-chlorophenyl)-4,4-dimethylcyclohex-1-en-1-yl]methyl}piperazin-1-yl)-2-(2-methoxyphenoxy)-N-({4-[(1-methylpiperidin-4-yl)amino]-3-nitrophenyl}sulfonyl)benzamide] was run?
Answer: The Ki was 0.112 nM.

Question: For `CC1(C)CCC(CN2CCN(c3ccc(C(=O)NS(=O)(=O)c4cnc(OCC5(F)CCOCC5)c(Cl)c4)c(Oc4cc5cc[nH]c5cc4F)c3)CC2)=C(c2ccc(Cl)cc2)C1` [Example 326, N-({5-chloro-6-[(4-fluorotetrahydro-2H-pyran-4-yl)methoxy]pyridin-3-yl}sulfonyl)-4-(4-{[2-(4-chlorophenyl)-4,4-dimethylcyclohex-1-en-1-yl]methyl}piperazin-1-yl)-2-[(6-fluoro-1H-indol-5-yl)oxy]benzamide], which Ki [1] is on record?
Answer: The Ki was 0.037 nM.

Question: Which Ki [1] does the source give for `CN(C)CCCc1c[nH]c2cccc(Oc3cc(N4CCN(CC5=C(c6ccc(Cl)cc6)CC(C)(C)CC5)CC4)ccc3C(=O)NS(=O)(=O)c3ccc(NN4CCN(C)CC4)c([N+](=O)[O-])c3)c12` [Example 340, 4-(4-{[2-(4-chlorophenyl)-4,4-dimethylcyclohex-1-en-1-yl]methyl}piperazin-1-yl)-2-({3-[3-(dimethylamino)propyl]-1H-indol-4-yl}oxy)-N-({4-[(4-methylpiperazin-1-yl)amino]-3-nitrophenyl}sulfonyl)benzamide] here?
Answer: The Ki was 0.385 nM.

Question: `CN(C)C(=O)CCc1ccccc1Oc1cc(N2CCN(Cc3ccccc3-c3ccc(Cl)cc3)CC2)ccc1C(=O)NS(=O)(=O)c1ccc(NCC2CCOCC2)c([N+](=O)[O-])c1` [Example 26, 4-(4-((4′-chloro-1,1′-biphenyl-2-yl)methyl)piperazin-1-yl)-2-(2-(3-(dimethylamino)-3-oxopropyl)phenoxy)-N-((3-nitro-4-((tetrahydro-2H-pyran-4-ylmethyl)amino)phenyl)sulfonyl)benzamide] was tested. Which Ki [1] did it give?
Answer: The Ki was 0.511 nM.

Question: With `CC1(C)CCC(CN2CCN(c3ccc(C(=O)NS(=O)(=O)c4ccc(OCC5(F)CCOCC5)c(S(=O)(=O)C(F)(F)F)c4)c(Oc4cnc(N)c(Cl)c4)c3)CC2)=C(c2ccc(Cl)cc2)C1` [Example 348, 2-[(6-amino-5-chloropyridin-3-yl)oxy]-4-(4-{[2-(4-chlorophenyl)-4,4-dimethylcyclohex-1-en-1-yl]methyl}piperazin-1-yl)-N-({4-[(4-fluorotetrahydro-2H-pyran-4-yl)methoxy]-3-[(trifluoromethyl)sulfonyl]phenyl}sulfonyl)benzamide] as the compound, how does the Ki [1] read?
Answer: Its Ki is 3.78 nM.

Question: How did the Ki [1] turn out when `CC1(C)CCC(CN2CCN(c3ccc(C(=O)NS(=O)(=O)c4ccc(OCC5CCOCC5)c([N+](=O)[O-])c4)c(Oc4cc5cc[nH]c5cc4F)c3)CC2)=C(c2ccc(Cl)cc2)C1` [Example 264, 4-(4-{[2-(4-chlorophenyl)-4,4-dimethylcyclohex-1-en-1-yl]methyl}piperazin-1-yl)-2-[(6-fluoro-1H-indol-5-yl)oxy]-N-{[3-nitro-4-(tetrahydro-2H-pyran-4-ylmethoxy)phenyl]sulfonyl}benzamide] was run?
Answer: The Ki was 0.068 nM.
